Measured values as given in PubChem BioAssay (NCI).
Values joined by “and” are separate entries in the source; they are usually repeats but may differ in a detail not shown here. Identical values can stand only once.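 In this assay, cells in 96-well plates receive the compound at five concentrations for 48 hours. Endpoints are linearly interpolated between the surrounding concentrations. GI50 is the concentration that inhibits growth by half. TGI: concentration producing complete growth inhibition.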

How the values were obtained:
Assay in all cases: NCI tumour cell line growth inhibition, 48 h
HOP-62 NSCLC = test system: HOP-62 NSCLC
HCT-116 colon = test system: HCT-116 colon
IGROV1 ovarian = test system: IGROV1 ovarian
OVCAR-8 ovarian = test system: OVCAR-8 ovarian
NCI-H460 lung = test system: NCI-H460 lung
U251 CNS = test system: U251 CNS
NCI-H23 lung = test system: NCI-H23 lung
SK-MEL-28 melanoma = test system: SK-MEL-28 melanoma
HCT-15 colon = test system: HCT-15 colon
HS 578T breast = test system: HS 578T breast

C[C@]12CC[C@@H]3c4ccccc4CC[C@H]3[C@@H]1CC[C@@H]2O
TGI (HOP-62 NSCLC): > 100 µM
TGI (HCT-116 colon): > 100 µM
TGI (IGROV1 ovarian): > 100 µM
TGI (OVCAR-8 ovarian): > 100 µM
TGI (NCI-H460 lung): > 100 µM
TGI (U251 CNS): > 100 µM
TGI (NCI-H23 lung): > 100 µM
TGI (SK-MEL-28 melanoma): > 100 µM
TGI (HCT-15 colon): > 100 µM

N[C@H]1CCN(c2c(F)cc3c(=O)c(C(=O)O)cn4c3c2Oc2cc3c(ccc5ccccc53)cc2-4)C1
TGI (HOP-62 NSCLC): > 100 µM
TGI (HCT-116 colon): > 100 µM
TGI (IGROV1 ovarian): > 100 µM
TGI (OVCAR-8 ovarian): > 100 µM
TGI (NCI-H460 lung): 5.28 µM
TGI (U251 CNS): 5.02 µM
TGI (NCI-H23 lung): > 100 µM
TGI (HCT-15 colon): > 100 µM

C/C(=N\NC(=O)c1cccnc1)c1cccc(/C(C)=N/NC(=O)c2cccnc2)n1
GI50 (HCT-116 colon): 4.24 µM
TGI (HCT-116 colon): > 100 µM
GI50 (IGROV1 ovarian): 3.74 µM
TGI (IGROV1 ovarian): 27.7 µM
TGI (OVCAR-8 ovarian): 19.3 µM
TGI (NCI-H460 lung): 34.6 µM
TGI (U251 CNS): > 100 µM
TGI (NCI-H23 lung): > 100 µM
GI50 (SK-MEL-28 melanoma): 9.56 µM
TGI (SK-MEL-28 melanoma): > 100 µM
TGI (HCT-15 colon): > 100 µM

COc1ccc(/C=C(\C#N)c2nc(N)nc(N3N=C(C)CC3(C)C)n2)c(O)c1
TGI (HOP-62 NSCLC): 43.6 µM
TGI (HCT-116 colon): 31.4 µM
TGI (HS 578T breast): 40 µM
TGI (IGROV1 ovarian): 56.4 µM
TGI (OVCAR-8 ovarian): > 100 µM
TGI (NCI-H460 lung): 38.2 µM
TGI (U251 CNS): 94.1 µM
TGI (NCI-H23 lung): 42.3 µM
TGI (SK-MEL-28 melanoma): 29.6 µM
TGI (HCT-15 colon): 35.3 µM

O=C1c2cc3c(cc2-c2c1c1ccc(Cl)cc1c(=O)n2C[C@H](O)[C@@H](O)[C@H](O)CO)OCO3
GI50 (HOP-62 NSCLC): 0.0186 µM
TGI (HOP-62 NSCLC): 0.341 µM
GI50 (HS 578T breast): 0.328 µM
TGI (HS 578T breast): > 100 µM
GI50 (IGROV1 ovarian): 0.126 µM
TGI (IGROV1 ovarian): > 100 µM
GI50 (OVCAR-8 ovarian): 0.0633 µM
TGI (OVCAR-8 ovarian): > 100 µM
GI50 (NCI-H460 lung): 0.0284 µM
TGI (NCI-H460 lung): 0.153 µM
GI50 (U251 CNS): < 0.01 µM
TGI (U251 CNS): 0.0505 µM
GI50 (NCI-H23 lung): 0.0293 µM
TGI (NCI-H23 lung): 0.193 µM
GI50 (SK-MEL-28 melanoma): 0.0997 µM
TGI (SK-MEL-28 melanoma): 1.16 µM
GI50 (HCT-15 colon): 0.143 µM
TGI (HCT-15 colon): 1.66 µM

Cc1cc(O)c(C(C)C)cc1CN1CCCCC1
TGI (HOP-62 NSCLC): > 100 µM
TGI (HCT-116 colon): > 100 µM
TGI (HS 578T breast): > 100 µM
TGI (IGROV1 ovarian): > 100 µM
TGI (OVCAR-8 ovarian): > 100 µM
TGI (NCI-H460 lung): > 100 µM
TGI (U251 CNS): > 100 µM
TGI (NCI-H23 lung): > 100 µM
TGI (SK-MEL-28 melanoma): > 100 µM
TGI (HCT-15 colon): > 100 µM

O=S(=O)(/N=C(\NO)Nc1ccc(Cl)cc1)c1ccc(S(=O)(=O)c2ccccc2)s1
TGI (HOP-62 NSCLC): 82.8 µM
TGI (HCT-116 colon): 30.4 µM
TGI (HS 578T breast): 96.9 µM
TGI (IGROV1 ovarian): 39.8 µM
TGI (OVCAR-8 ovarian): 89.6 µM
TGI (NCI-H460 lung): 29.1 µM
TGI (U251 CNS): 60.3 µM
TGI (NCI-H23 lung): 52.1 µM
TGI (SK-MEL-28 melanoma): 40.7 µM
TGI (HCT-15 colon): > 100 µM

CC(Sc1ccccc1)C(CO)(CO)[N+](=O)[O-] (configuration not stated)
TGI (HOP-62 NSCLC): 35.5 µM
TGI (HCT-116 colon): 31.6 µM
TGI (IGROV1 ovarian): 38 µM
TGI (OVCAR-8 ovarian): 28.7 µM
TGI (NCI-H460 lung): 50.7 µM
TGI (U251 CNS): 26 µM
TGI (NCI-H23 lung): 33.3 µM
TGI (HCT-15 colon): 30.6 µM

C[C@]12CCC(=O)C=C1CC[C@@H]1[C@@H]2[C@@H](O)C[C@@]2(C)[C@H]1CC[C@]2(O)C(=O)CO
TGI (HOP-62 NSCLC): > 100 µM
TGI (HCT-116 colon): > 100 µM
TGI (HS 578T breast): > 100 µM
TGI (IGROV1 ovarian): > 100 µM
TGI (OVCAR-8 ovarian): > 100 µM
TGI (NCI-H460 lung): > 100 µM
TGI (U251 CNS): > 100 µM
TGI (NCI-H23 lung): > 100 µM
TGI (SK-MEL-28 melanoma): > 100 µM
TGI (HCT-15 colon): > 100 µM

COC(=O)C1C(C)N1C (configuration not stated)
TGI (HOP-62 NSCLC): > 100 µM
TGI (IGROV1 ovarian): > 100 µM
TGI (OVCAR-8 ovarian): > 100 µM
TGI (NCI-H460 lung): > 100 µM
TGI (U251 CNS): > 100 µM
TGI (NCI-H23 lung): > 100 µM
TGI (SK-MEL-28 melanoma): > 100 µM
TGI (HCT-15 colon): > 100 µM

O=C(CCN1CC2CCC(CC2)C1)c1cccs1
TGI (HOP-62 NSCLC): 45.5 µM
TGI (HCT-116 colon): 42 µM
TGI (HS 578T breast): 71.9 µM
TGI (IGROV1 ovarian): 25.8 µM
TGI (OVCAR-8 ovarian): 42.4 µM
TGI (NCI-H460 lung): 37.5 µM
TGI (U251 CNS): 33.5 µM
TGI (NCI-H23 lung): 36.7 µM
TGI (SK-MEL-28 melanoma): 32.5 µM
TGI (HCT-15 colon): 44.1 µM

CC[C@@]1(O)C(=O)OCc2c1cc1n(c2=O)Cc2c-1nc1ccc(O)cc1c2CC[Si](C)(C)C
TGI (HOP-62 NSCLC): 0.0106 µM
TGI (IGROV1 ovarian): 0.202 µM
TGI (OVCAR-8 ovarian): 0.197 µM
TGI (NCI-H460 lung): 0.00445 µM and 0.0117 µM
TGI (NCI-H23 lung): 0.0103 µM and 0.0118 µM
GI50 (SK-MEL-28 melanoma): 0.107 µM
TGI (SK-MEL-28 melanoma): > 100 µM
TGI (HCT-15 colon): 95 µM

NCCNc1nc(N2CCCC2)c2nc(Cl)c(NCc3ccccc3)nc2n1
TGI (HOP-62 NSCLC): 3.64 µM
TGI (HCT-116 colon): 2.93 µM
TGI (HS 578T breast): 12.8 µM
TGI (IGROV1 ovarian): 4.7 µM
TGI (NCI-H460 lung): 3.54 µM
TGI (U251 CNS): 2.87 µM
TGI (NCI-H23 lung): 5.46 µM
TGI (SK-MEL-28 melanoma): 3.39 µM
TGI (HCT-15 colon): 3.84 µM

O=S(=O)(O)c1cccc2c(N=Nc3c(O)ccc4ccccc34)cccc12
TGI (HOP-62 NSCLC): > 100 µM
TGI (HCT-116 colon): > 100 µM
TGI (HS 578T breast): > 100 µM
TGI (IGROV1 ovarian): > 100 µM
TGI (OVCAR-8 ovarian): > 100 µM
TGI (U251 CNS): > 100 µM
TGI (NCI-H23 lung): > 100 µM
TGI (SK-MEL-28 melanoma): > 100 µM
TGI (HCT-15 colon): > 100 µM

CC(=O)OC1CC(O)CC2=CCC3C4CCC(C(C)(O)C(O)CC5COC(=O)C5C)C4(C)CCC3C21C (configuration not stated)
TGI (HOP-62 NSCLC): > 25 µM
TGI (HCT-116 colon): > 25 µM
TGI (HS 578T breast): > 25 µM
TGI (IGROV1 ovarian): > 25 µM
TGI (OVCAR-8 ovarian): > 25 µM
TGI (NCI-H460 lung): > 25 µM
TGI (U251 CNS): > 25 µM
TGI (NCI-H23 lung): > 25 µM
TGI (SK-MEL-28 melanoma): > 25 µM
TGI (HCT-15 colon): > 25 µM

CC(=O)N(C)c1ccc2c(ccc[n+]2[O-])c1[N+](=O)[O-]
TGI (HOP-62 NSCLC): > 100 µM
TGI (HCT-116 colon): > 100 µM
TGI (IGROV1 ovarian): > 100 µM
TGI (OVCAR-8 ovarian): > 100 µM
TGI (NCI-H460 lung): > 100 µM
TGI (U251 CNS): > 100 µM
TGI (NCI-H23 lung): > 100 µM
TGI (SK-MEL-28 melanoma): > 100 µM
TGI (HCT-15 colon): > 100 µM

O=S1(=O)OC(c2ccc(O)cc2)(c2ccc(O)cc2)c2ccccc21
TGI (HOP-62 NSCLC): > 100 µM
TGI (HCT-116 colon): > 100 µM
TGI (HS 578T breast): > 100 µM
TGI (IGROV1 ovarian): > 100 µM
TGI (OVCAR-8 ovarian): > 100 µM
TGI (NCI-H460 lung): > 100 µM
TGI (U251 CNS): > 100 µM
TGI (NCI-H23 lung): > 100 µM
TGI (SK-MEL-28 melanoma): > 100 µM
TGI (HCT-15 colon): > 100 µM
